Here are results for 21 compounds from ChEMBL document CHEMBL1126287, “Analogues of natural phloroglucinols as antagonists against both thromboxane A2 and leukotriene D4” (J Med Chem, 1992).

Assay type in all cases: functional
The species entered for test [1] is Cavia porcellus. The test is described as follows: Inhibitory activity of the Compound was tested against U-46619 induced contraction of guinea pig trachea.
For test [2], the species on record is Cavia porcellus. The test is described as follows: Inhibitory concentration of the Compound was tested against LTD4 induced contraction of guinea pig trachea.
The species entered for test [3] is Cavia porcellus. The test is described as follows: Inhibitory activity of the Compound was tested against LTD4 induced contraction of guinea pig trachea at 2*10e-5 M concentration.
The species named for test [4] is Cavia porcellus. The test is described as follows: Inhibitory activity of the Compound was tested against U-46619 induced contraction of guinea pig trachea at 3*10e-6 M concentration.
The species entered for test [5] is Cavia porcellus. The test is described as follows: Inhibitory activity of the Compound was tested against U-46619 induced contraction of guinea pig trachea at 2*10e-5 M concentration.
For test [6], the species on record is Cavia porcellus. The test is described as follows: Inhibitory activity of the Compound was tested against LTD4 induced contraction of guinea pig trachea at 3*10e-6 M concentration.
For test [7], the species on record is Cavia porcellus. The test is described as follows: Inhibitory activity of the Compound was tested against U-46619 induced contraction of guinea pig trachea at 2*10e-5 concentration.
The species entered for test [8] is Cavia porcellus. The test is described as follows: Inhibitory activity of the Compound was tested against LTD4 induced contraction of guinea pig trachea at 1*10e-5 M concentration.
Test [9] is filed under the species Cavia porcellus. The test is described as follows: Inhibitory activity of the Compound was tested against U-46619 induced contraction of guinea pig trachea at 1*10e-5 M concentration.
The species named for test [10] is Cavia porcellus. The test is described as follows: Inhibitory activity of the Compound was tested against U-46619 induced contraction of guinea pig trachea at 3*10e-8 M concentration.
Test [11] is filed under the species Cavia porcellus. The test is described as follows: Inhibitory activity of the Compound was tested against LTD4 induced contraction of guinea pig trachea at 1*10e-4 M concentration.
Test [12] is filed under the species Cavia porcellus. The test is described as follows: Inhibitory activity of the Compound was tested against U-46619 induced contraction of guinea pig trachea at 1*10e-4 M concentration.
Test [13] is filed under the species Cavia porcellus. The test is described as follows: Inhibitory activity of the Compound was tested against LTD4 induced contraction of guinea pig trachea at 2*10e5- M concentration.
For test [14], the species on record is Cavia porcellus. The test is described as follows: Inhibitory activity of the Compound was tested against U-46619 induced contraction of guinea pig trachea at 2 *10e-7 M concentration.
The species named for test [15] is Cavia porcellus. The test is described as follows: Inhibitory activity of the Compound was tested against U-46619 induced contraction of guinea pig trachea at 2*10e-6 M concentration.
Test [16] is filed under the species Cavia porcellus. The test is described as follows: Inhibitory activity of the Compound was tested against LTD4 induced contraction of guinea pig trachea at 2*10e-6 M concentration.
The species entered for test [17] is Cavia porcellus. The test is described as follows: Inhibitory activity of the Compound was tested against LTD4 induced contraction of guinea pig trachea at 2*10e-7 M concentration.
For test [18], the species on record is Cavia porcellus. The test is described as follows: Inhibitory activity of the Compound was tested against U-46619 induced contraction of guinea pig trachea at 2*10e-7 M concentration.
For test [19], the species on record is Cavia porcellus. The test is described as follows: Inhibitory activity of the Compound was tested against LTD4 induced contraction of guinea pig trachea at 3*10e-7 M concentration.
For test [20], the species on record is Cavia porcellus. The test is described as follows: Inhibitory activity of the Compound was tested against U-46619 induced contraction of guinea pig trachea at 1*10e-6 M concentration.
Test [21] is filed under the species Cavia porcellus. The test is described as follows: Inhibitory activity of the Compound was tested against LTD4 induced contraction of guinea pig trachea at 1*10e-6 M concentration.
For test [22], the species on record is Cavia porcellus. The test is described as follows: Inhibitory activity of the Compound was tested against U-46619 induced contraction of guinea pig trachea at 3*10e-7 M concentration.
For test [23], the species on record is Cavia porcellus. The test is described as follows: Inhibitory activity of the Compound was tested against LTD4 induced contraction of guinea pig trachea at 1*10e-5 concentration.
The species entered for test [24] is Cavia porcellus. The test is described as follows: Inhibitory activity of the Compound was tested against U-46619 induced contraction of 2*10e-5 M concentration.

In the case of `CCCCCC1(CCCCC)C(=O)C(C(=O)C(C)C)=C(O)C(C(=O)C(C)C)=C1O`, the IC50 in [1] is 5.6 µM; in [2], 2300 nM. Besides, the Inhibition is given as 95% in [3], 17% in test [4], 80.4% in [5] and 58.3% in test [6].
With `CCCCCC(=O)c1c(O)cc(O)cc1O`, the IC50 in [1] came to 8.9 µM; in [2], 7600 nM. In addition, the Inhibition came to 100% in test [7], 93.9% in test [3], 62.3% in [8] and 56.9% in [9].
As for `CCCCCC(=O)c1c(O)cc(O)c(C(=O)CCCCC)c1O`, the results for the Inhibition in test [3] and in test [5] were 43.3% and 25.9%, respectively.
Compound `CC(C)C(=O)c1c(C(C)C)nn2ccccc12` [IBUDILAST] had an Inhibition in [10] of 85.4%.
`CC(C)C(=O)c1c(O)cc(O)cc1O` [PHLOROISOBUTYROPHENONE] registered an IC50 in test [1] of 6.6 µM. Further, the results for the Inhibition in test [8], in test [4] and in test [9] were 32%, 11% and 70.4%, respectively.
As for `CC(C)=CCC/C(C)=C/COc1cc(O)c(C(=O)C(C)C)c(O)c1C`, the Inhibition in [11] turned out to be 50.9%; in test [12], 50%; in test [13], 12.6%; in test [5], 10.8%.
Take `CC(C)C(=O)C1=C(O)C(C)(C)C(O)=C(C(=O)C(C)C)C1=O`: the IC50 in test [1] worked out at 0.58 µM; in test [2] it was 570 nM. The Inhibition is 38.5% in test [14]; 80.2% in test [4]; 61.2% in [15]; 87% in test [6]; 60.7% in [16]; 36.8% in [17].
On to `CCC(=O)c1c(O)cc(O)c(C(=O)CC)c1O`, for which, in test [2], the midpoint of inhibition, the IC50, lay at 12000 nM. Moreover, the Inhibition in test [3] amounted to 97.1%; in test [5] it was 53.4%; in [16] it was 42.5%; in [17], 30.8%.
For `CC(C)C(=O)c1c(O)cc(O)c(C(=O)C(C)C)c1O`, in that order: 1200 nM, 92.3%, 53.6%, 48.5% and 28.9%.
`CCCCCCCC(=O)c1c(O)cc(O)c(C(=O)CCCCCCC)c1O`: the Inhibition amounted to 17.4% in [3] and 15.1% in test [5].
On to `CCCC1(CCC)C(=O)C(C(=O)C(C)C)=C(O)C(C(=O)C(C)C)=C1O`, for which the IC50 in test [1] came out at 6.9 µM; in test [2], 5900 nM. Further, the Inhibition is 88.5% in test [3], 25.3% in [4], 81.7% in test [5] and 28.5% in [6].
With `COC1(OC)C(=O)C(C/C=C(\C)CCC=C(C)C)=C(O)C(CC=C(C)C)=C1O`, the Inhibition was 63.6% in [3] and 94.9% in [5].
For `CCC(C)C(=O)c1c(O)cc(O)c(C(=O)C(C)CC)c1O` (stereo not given), the IC50 in test [1] was 1.7 µM; in test [2] it was 1400 nM. Also, the Inhibition in test [3] is given as 80.1%; in test [15] it was 34.7%; in test [5], 98%; in test [16] it was 45.5%.
`CCCCC1(CCCC)C(=O)C(C(=O)C(C)C)=C(O)C(C(=O)C(C)C)=C1O`: the IC50 in test [1] came to 1.8 µM; in test [2], 1200 nM. Also, the Inhibition in [3] is listed as 100%; in test [4], 58.6%; in [5], 91.6%; in test [6], 66.5%.
`CC(C)CC(=O)c1c(O)cc(O)cc1O` came in with an IC50 in test [1] of 4.7 µM. Further, the Inhibition amounted to 22.7% in test [4] and 96.6% in [9].
Turning to `CC(C)CC(=O)c1c(O)cc(O)c(C(=O)CC(C)C)c1O`, the Inhibition in test [18] was determined as 22.6%; in [3], 100%; in test [15] it was 42%; in test [5] it was 100%; in [16], 78.2%; in test [17], 29.9%. Also, the IC50 came to 1.5 µM in [1] and 560 nM in test [2].
On to `CCC1(CC)C(=O)C(C(=O)C(C)C)=C(O)C(C(=O)C(C)C)=C1O`, for which the Inhibition is 44.9% in test [19], 84.2% in test [20], 87.8% in test [21] and 49% in test [22]. Besides, the IC50 was determined as 0.31 µM in [1] and 350 nM in test [2].
In the case of `CC(=O)c1c(O)cc(O)c(C(C)=O)c1O`, the Inhibition in [3] came to 39.1%; in test [5] it was 44.3%.
Compound `CCCC(=O)c1c(O)cc(O)cc1O` yielded an Inhibition in [9] of 27.3%.
In turn, `CCC(C)C(=O)c1c(O)cc(O)cc1O` (stereo not given) registered an IC50 in test [1] of 6 µM. The Inhibition amounted to 13.8% in [4], 25.4% in test [23] and 76.3% in test [9].
Turning to `CCCC(=O)c1c(O)cc(O)c(C(=O)CCC)c1O`, the Inhibition in test [18] was determined as 8.4%; in [3], 87%; in test [24], 72.5%; in [15], 57%; in [16], 59.4%; in test [17], 12.5%. Further, the IC50 in test [1] came to 2.7 µM; in [2], 1400 nM.
